Source: patent publication US20210283217A1, “NEUROMODULATING COMPOSITIONS AND RELATED THERAPEUTIC METHODS FOR THE TREATMENT OF INFLAMMATORY AND AUTOIMMUNE DISEASES” (Flagship Pioneering Innovations V, Inc., priority 2016, published 2021)

What was measured:
primary human T cells = experiment: T cell activation and cytokine secretion assay (LEGENDplex); assay type: cell-based
Procedure: Peripheral blood mononuclear cells (PBMCs) were isolated from whole blood by ficoll density separation. Briefly, blood was diluted 1:2 with 0.5 mM EDTA solution in PBS, loaded onto a Ficoll-filled Leucosep tube (Greiner Bio-One), and centrifuged for 20 minutes at 1000×g. After centrifugation, the leukocyte/PBMC layer on top of the separation medium was collected and sequentially washed three times with 0.5 mM EDTA solution in PBS. T cells were isolated from PBMCs using magnetic bead-based separation following vendor specification, e.g., Biolegend MojoSort Human CD4/CD8 Naïve T Cell Isolation Kit protocol. In brief, the PBMCs were labeled with biotinylated antibodies against cell surface receptors for cells not in the population of interest. The labeled cells are then captured by streptavidin-coated magnetic beads and removed by magnetic incubation. The uncaptured cells that flow through the magnetic separation are predominantly comprised of the population of interest, in this instance CD3+ T cells. T cells were stained with a 5 μM solution of Tag-it Violet™ dye (BioLegend) for 20 minutes protected from light. The stain was quenched by incubating the cells in cell culture medium containing 10% FBS (complete media). Stained cells were plated on tissue culture plates and sub-maximally activated with concanavalin A (con A) added to the culture medium. Cells were plated at 0.1×10^6 cells well. […] Cells were collected at 24, 48, and 72 hrs. Supernatants were collected at 24, 48, and 72 hrs and cytokine secretion was analyzed by flow cytometry using a LEGENDplex assay (BioLegend). In brief, following manufacturer's protocol, beads pre-coated with antibodies specific to various cytokines were incubated with cell supernatant. […] The beads were then stained and the captured cytokine composition assessed by flow cytometry.

[1] = tested on: T cells in the lymph node; experiment: Lymph node remodeling by hock injection, flow cytometry of lymph node cells; assay type: in vivo, C57BL/6J mice; settings: hock injection 48.5 nmol followed by quinpirole 0.1 nmol; 24 hours
Procedure: 24 hours after hock injection, brachial lymph nodes (LN) were harvested in culture medium (RPMI+10% FBS). LNs were transferred to 24-well tissue culture plates containing 0.5 mL LN digestion buffer (RPMI, 2% FBS, collagenase D (3.3 mg/mL), and DNAse I (40 ug/mL)). LN capsules were manually opened with two syringe (26G) needles and the LNs were incubated in digestion buffer for 15 minutes. Digested LNs were filtered with a 40 μM cell strainer and tissues were smashed with the plunger of a 5 mL syringe. Collected cells were washed in culture medium and plated for assays. Total number of viable cells were assessed by staining with viability dye eFluor 780 (eBioscience). Surface markers of various immune cell subsets were analyzed by staining the cells with antibodies for cell identity (CD3, CD4, CD8, CD19), for the inflammatory marker CD69, and the migratory marker CCR7. The cells were then assayed by flow cytometry.

[2] = Treatment of multiple sclerosis patient, MRI lesions; assay type: in vivo, human; settings: MS patient; oral 5 mg/day; MRI 3-6 month after treatment initiation
Procedure: A patient is diagnosed with multiple sclerosis (MS) by MRI criteria of >2 lesions. The patient is treated orally with propranolol at a dose regimen of 5 mg/day. An MRI scan is administered 3-6 month after treatment initiation. Further MRI scans are obtained at intervals of 6-12 months.

macrophages = experiment: Macrophage activation and cytokine secretion assay (M1/M2 polarization); assay type: cell-based, human
Procedure: Peripheral blood mononuclear cells (PBMCs) were isolated from whole blood by ficoll density separation. Briefly, blood was diluted 1:2 with 0.5 mM EDTA solution in PBS, loaded onto a Ficoll-filled Leucosep tube (Greiner Bio-One), and centrifuged for 20 minutes at 1000×g. After centrifugation, the leukocyte/PBMC layer was collected and sequentially washed three times with 0.5 mM EDTA solution in PBS.
Monocytes (CD14+) were isolated from PBMCs using magnetic bead-based separation following vendor specifications, e.g., Biolegend MojoSort Human CD14 Selection Kit protocol. In brief, PBMCs were labeled with biotinylated antibodies against cell surface receptors for cells not in the population of interest. The labeled cells are then captured by streptavidin-coated magnetic beads and removed by magnetic incubation. The uncaptured cells that flow through the magnetic separation are predominantly comprised of the population of interest, in this case CD14+ monocytes.
Monocytes were differentiated into macrophages by culturing in DMEM complete medium containing 10% FBS for seven days in the presence of 40 ng/mL human M-CSF. Media was changed on day 1 and day 4. On Day 4, macrophages were polarized to various subtypes as follows: M0—incubated with 40 ng/mL M-CSF; M1—cultured with 40 ng/mL M-CSF, 20 ng/mL IFNγ, and 50 ng/mL LPS; M2—incubated with 40 ng/mL M-CSF, 20 ng/mL IL4, 20 ng/mL IL10, and 20 ng/mL TFGB. On day 7, cells were harvested by scraping them from the tissue culture plates and transferring them to 96-well plates.
Supernatants were collected at 24, 48, and 72 hrs and cytokine secretion was analyzed by flow cytometry using a LEGENDplex assay (BioLegend). In brief, following manufacturer's protocol, beads that are pre-coated with antibodies specific to various cytokines were incubated with cell supernatant. […] The beads were then stained and the captured cytokine composition assessed by flow cytometry.
M1 macrophage polarization is defined as increase in production of IL-12, TNF, IL-6, IL-8, IL-1B, MCP-1 and CCL2. Additionally, markers of M1 polarization that can be detected by RNA include Nos2. M2 polarization is defined as increase in IL-10 and/or a decrease in the M1 cytokines listed above. Additionally, markers of M2 polarization that can be detected by RNA include Arg1, IDO, PF4, CCL24, IL10, and IL4Ralpha.

NK cells = experiment: NK cell ADCC against trastuzumab-coated Her2 expressing target cells; assay type: cell-based, human; settings: compared with NK cells pre-treated with beta adrenergic antagonist (nadolol or propranolol) prior to the agonist
Procedure: Primary Natural Killer (NK) cells are isolated from human peripheral blood using a magnetic bead-based separation kit that negatively selects NK cells by sequestering other defined cell types (T, B, monocytes, etc.). Isolated NK cells are incubated with a target cell line, for example a Her2 expressing cancer cell line that has been pre-coated with trastuzumab, an anti-Her2 antibody, at a range of target-to-effector cell ratios. Following antibody-dependent cell cytotoxicity (ADCC)—antibody-mediated killing of the target cells by the NK cells, the number of surviving target cells is assessed by a fluorescent viability stain.

[3] = low sub-nanomolar concentrations, 72 hours post treatment
[4] = T cells from two different donors, 72 hours
[5] = T cells from two different donors, multiple time points

## NCCc1ccc(O)c(O)c1 [dopamine, Dopamine]
Primary human T cells; 24 and 48 hours post-treatment, nanomolar concentrations
  T cell production of pro-survival cytokine IL-2: increase
Primary human T cells; [3]
  T cell production of pro-inflammatory cytokine IFNγ: increase
  T cell production of pro-inflammatory cytokine IL-5: increase
  T cell production of pro-inflammatory cytokine IL-6: increase
  T cell production of pro-inflammatory cytokine IL-10: increase
  T cell production of pro-inflammatory cytokine IL-13: increase

## O=C(CCCN1CCC(O)(c2ccc(Cl)cc2)CC1)c1ccc(F)cc1 [haloperidol, Haloperidol]
[1]
  quinpirole-induced increase of CCR7+ T cells in the lymph node after pre-treatment with antagonist: inhibited

## neuropeptide Y
Primary human T cells; sub-nanomolar concentrations, 48 hours post-treatment
  T cell production of cytokine IL-4: increase

## CC(C)NCC(O)COc1cccc2ccccc12 (centres unmarked) [propranolol]
[2]
  Gadolinium (Gd)-enhancing T1 lesions and/or new or enlarging (active) T2 lesions: decrease

## CC(C)NCC(O)c1ccc(O)c(O)c1 (centres unmarked) [isoproterenol]
Primary human T cells; [4]
  T cell production of pro-inflammatory cytokine IFNγ (FIG. 6A): decreased
  T cell production of pro-inflammatory cytokine IL-10 (FIG. 6C): decreased
  T cell production of pro-inflammatory cytokine TNFα (FIG. 6B): decreased
Primary human T cells; [5]
  T cell production of pro-inflammatory cytokine IFNγ: decrease
  T cell production of pro-inflammatory cytokine IL-10: decrease
  T cell production of pro-inflammatory cytokine TNFα: decrease
macrophages; M1 marker
  transcript of NOS2 in macrophages: decrease
macrophages; M2 marker
  transcript for Arg1 in macrophages: increase
  transcript for IL-10 in macrophages: increase
macrophages; monocyte-derived macrophages, dilutions from 10 μM to 1 nM
  macrophage polarization phenotype: polarized toward an M2 phenotype

## CC(C)NCC(O)c1cc(O)cc(O)c1 (centres unmarked) [metaproterenol]
NK cells
  ADCC induced by treated NK cells: significantly less ADCC
